Assay type in all cases: cell-based
In one data set the target is T1, rOATP1B2 (Rattus norvegicus, UniProt Q9QZX8).
T1 construct: The full-length mOATP1B2 and rOATP1B2 consist of 689 and 678 amino acids
T1 sequence (Q9QZX8 1-687): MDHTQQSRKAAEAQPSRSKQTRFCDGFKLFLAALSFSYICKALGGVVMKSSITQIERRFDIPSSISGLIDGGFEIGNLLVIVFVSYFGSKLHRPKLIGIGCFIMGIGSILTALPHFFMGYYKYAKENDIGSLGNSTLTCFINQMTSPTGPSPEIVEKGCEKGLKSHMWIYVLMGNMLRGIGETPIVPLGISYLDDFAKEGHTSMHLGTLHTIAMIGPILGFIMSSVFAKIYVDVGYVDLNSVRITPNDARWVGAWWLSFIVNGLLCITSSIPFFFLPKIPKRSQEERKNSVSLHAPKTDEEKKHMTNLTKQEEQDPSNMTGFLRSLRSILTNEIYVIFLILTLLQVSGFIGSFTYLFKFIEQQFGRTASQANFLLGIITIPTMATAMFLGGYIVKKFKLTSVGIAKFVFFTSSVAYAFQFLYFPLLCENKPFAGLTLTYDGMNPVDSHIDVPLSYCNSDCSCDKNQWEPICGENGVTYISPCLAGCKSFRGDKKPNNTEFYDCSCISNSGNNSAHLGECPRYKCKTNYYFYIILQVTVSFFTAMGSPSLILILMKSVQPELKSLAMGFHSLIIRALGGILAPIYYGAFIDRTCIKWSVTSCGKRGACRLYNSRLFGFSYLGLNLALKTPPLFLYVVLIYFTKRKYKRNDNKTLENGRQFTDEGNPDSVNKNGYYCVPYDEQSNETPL
Put plainly: cis-inhibition of rOATP1B2-mediated E1S or TCA uptake in HEK293 cells.

The target in another data set is T2, hOATP1B1 (Homo sapiens, UniProt Q9Y6L6).
T2 sequence (Q9Y6L6 1-691): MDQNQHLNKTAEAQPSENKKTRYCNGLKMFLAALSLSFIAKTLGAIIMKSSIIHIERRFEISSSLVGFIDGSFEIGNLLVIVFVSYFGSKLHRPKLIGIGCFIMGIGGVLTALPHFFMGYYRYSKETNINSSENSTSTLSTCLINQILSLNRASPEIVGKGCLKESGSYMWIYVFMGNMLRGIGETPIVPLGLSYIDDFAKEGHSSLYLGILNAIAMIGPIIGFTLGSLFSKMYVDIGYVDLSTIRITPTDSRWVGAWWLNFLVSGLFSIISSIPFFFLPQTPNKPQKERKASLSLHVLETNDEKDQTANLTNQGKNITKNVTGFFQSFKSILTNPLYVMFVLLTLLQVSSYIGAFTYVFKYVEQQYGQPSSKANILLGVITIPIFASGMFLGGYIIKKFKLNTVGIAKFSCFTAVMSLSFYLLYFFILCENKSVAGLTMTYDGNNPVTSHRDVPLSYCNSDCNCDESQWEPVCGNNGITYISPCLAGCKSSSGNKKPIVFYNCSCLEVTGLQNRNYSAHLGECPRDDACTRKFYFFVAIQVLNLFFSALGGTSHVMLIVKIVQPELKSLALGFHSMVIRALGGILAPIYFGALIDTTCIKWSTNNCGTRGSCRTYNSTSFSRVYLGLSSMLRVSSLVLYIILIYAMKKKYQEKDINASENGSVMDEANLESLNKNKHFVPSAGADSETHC
Put plainly: cis-inhibition of hOATP1B1-mediated E1S uptake in HEK293 cells. On the set-up: expressed in transfected cells; host or cells: HEK-293, stably transfected. The note with it: 10 µM drug; for Inhibitory effect on hOATP1B1-mediated E1S uptake: 0.01 µM [3H]-E1S, 1 min; for inhibition at 1 min, 10 µM: human, HEK293 cells expressing hOATP1B1, probe 0.01 µM [3H]-E1S, read-out: Inhibitory effect on hOATP1B1-mediated E1S uptake. As for the experimental part:
(§1) Inhibitory effects were calculated as a percentage of the net-uptake rates.
(§2) The means ± average deviation (AD, for N = 2) were calculated from two experiments on two different days. The significance as a p-value was calculated using Student’s t-test in Microsoft Excel.

The target of the next data set is T3, hOATP1B3 (Homo sapiens, UniProt Q9NPD5).
T3 sequence (Q9NPD5 1-702): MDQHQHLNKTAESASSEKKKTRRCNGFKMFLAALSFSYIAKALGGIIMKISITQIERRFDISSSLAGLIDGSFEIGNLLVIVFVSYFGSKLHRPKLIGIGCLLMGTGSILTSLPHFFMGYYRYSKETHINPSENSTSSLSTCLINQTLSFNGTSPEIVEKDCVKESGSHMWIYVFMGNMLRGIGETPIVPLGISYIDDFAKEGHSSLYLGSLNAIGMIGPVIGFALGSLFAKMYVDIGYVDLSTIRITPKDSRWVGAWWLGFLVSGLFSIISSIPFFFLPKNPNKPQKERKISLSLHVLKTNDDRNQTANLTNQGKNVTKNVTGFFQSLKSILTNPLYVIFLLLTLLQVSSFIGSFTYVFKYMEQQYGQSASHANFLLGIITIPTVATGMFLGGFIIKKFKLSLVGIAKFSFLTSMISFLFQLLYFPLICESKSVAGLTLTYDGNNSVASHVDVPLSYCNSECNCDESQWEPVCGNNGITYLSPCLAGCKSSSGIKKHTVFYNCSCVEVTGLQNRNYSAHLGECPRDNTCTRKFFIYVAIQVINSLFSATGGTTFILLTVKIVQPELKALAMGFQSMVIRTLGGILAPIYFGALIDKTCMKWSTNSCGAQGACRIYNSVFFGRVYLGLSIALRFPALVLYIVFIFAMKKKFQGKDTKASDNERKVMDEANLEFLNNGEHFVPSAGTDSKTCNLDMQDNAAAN
Put plainly: cis-inhibition of hOATP1B3-mediated TCA uptake in HEK293 cells. On the set-up: expressed in transfected cells; host or cells: HEK-293, stably transfected. The note with it: 10 µM drug; for Inhibitory effect on hOATP1B3-mediated TCA uptake: 1 µM TCA, 10 min; for inhibition at 10 min, 10 µM: human, HEK293 cells expressing hOATP1B3, probe 1 µM TCA (containing 0.01 µM [3H]-TCA), Inhibitory effect on hOATP1B3-mediated TCA uptake. The procedure:
as §1, §2

[1] abbreviates: HEK293, 10 µM drug, 1 µM [3H]-E1S, 1 min, read-out: Inhibitory effect on rOATP1B2-mediated E1S uptake.
Where [2] appears, read: HEK293, read-out: Inhibitory effect on rOATP1B2-mediated TCA uptake, 10 µM drug, 1 µM [3H]-TCA, 1 min.
The mark [3] stands for this setting: HEK293, read-out: Inhibitory effect on rOATP1B2-mediated substrate uptake (summary over E1S and TCA), 10 µM drug, substrates E1S and TCA not separated.

“Also recorded” adds a separate entry of the source. Read-outs that look alike come from different tables or passages of the source.

As to `CCCCC1(CCCC)CN(c2ccccc2)c2cc(SC)c(OCC(=O)N[C@@H](C(=O)N[C@@H](CC)C(=O)O)c3ccc(O)cc3)cc2S(=O)(=O)N1` [Odevixibat, odevixibat], the inhibition at 10 µM at rOATP1B2 (setting [1]) is 82%. For the same compound, the inhibition at 10 µM at rOATP1B2 (setting [2]) was 74%. Further, the inhibition at 10 µM on rOATP1B2 (setting [3]) lay in the range of 54 to 82%. Further, on hOATP1B1, the “Inhibitory effect on hOATP1B1-mediated E1S uptake” value was “completely inhibited; also recorded: complete inhibition” and the inhibition at 1 min, 10 µM came out at 96%. Moreover, at hOATP1B3, the “Inhibitory effect on hOATP1B3-mediated TCA uptake” value is reported as “completely inhibited; also recorded: complete inhibition” and the inhibition at 10 min, 10 µM was 102%.
For `Clc1ccccc1C(c1ccccc1)(c1ccccc1)n1ccnc1` [Clotrimazole, clotrimazole], the “Inhibitory effect on rOATP1B2-mediated substrate uptake (summary over E1S and TCA)” value on rOATP1B2 (10 µM drug, substrates E1S and TCA not separated) is given as “no inhibitory properties; also recorded: did not inhibit”. Further, at rOATP1B2 (setting [1]), the inhibition at 10 µM is -10%. Besides, the inhibition at 10 µM on rOATP1B2 (setting [2]) is -10%. Also, on hOATP1B1, the “Inhibitory effect on hOATP1B1-mediated E1S uptake” value was “did not inhibit” and the inhibition at 1 min, 10 µM is 10%. Also, at hOATP1B3, the “Inhibitory effect on hOATP1B3-mediated TCA uptake” value is “did not inhibit” and the inhibition at 10 min, 10 µM was -44%.
With `CC(C)CN(C[C@@H](O)[C@H](Cc1ccccc1)NC(=O)O[C@H]1CCOC1)S(=O)(=O)c1ccc(N)cc1` [Amprenavir, amprenavir], the inhibition at 10 µM at rOATP1B2 (setting [1]) is 21%; at rOATP1B2 (setting [2]) it was 27%; on rOATP1B2 (setting [3]), less than 50%. The figures for the “Inhibitory effect on hOATP1B1-mediated E1S uptake” value on hOATP1B1 and at hOATP1B1 (listed as amprenavir) were −1% and “less than 50%”, respectively. Besides, the “Inhibitory effect on hOATP1B3-mediated TCA uptake” value at hOATP1B3 is recorded as 21%; at hOATP1B3 (listed as amprenavir) it was “less than 50%”.
Take `CC(C)c1nc(N(C)S(C)(=O)=O)nc(-c2ccc(F)cc2)c1/C=C/[C@@H](O)C[C@@H](O)CC(=O)O` [Rosuvastatin, rosuvastatin]: the values for the inhibition at 10 µM at rOATP1B2 (setting [1]), on rOATP1B2 (setting [2]) and on rOATP1B2 (setting [3]) were 73%, 69% and no less than 50%, respectively. The inhibition at 1 min, 10 µM at hOATP1B1 worked out at 16%. On hOATP1B3, the inhibition at 10 min, 10 µM stood at 24%.
Usually IC50 stands for the midpoint of a concentration-inhibition curve. Consider `CO[C@H]1/C=C/O[C@@]2(C)Oc3c(C)c(O)c4c(O)c(c(/C=N/N5CCN(C)CC5)c(O)c4c3C2=O)NC(=O)/C(C)=C\C=C\[C@H](C)[C@H](O)[C@@H](C)[C@@H](O)[C@@H](C)[C@H](OC(C)=O)[C@@H]1C` [Rifampicin, rifampicin], for which the IC50 on rOATP1B2 (1 µM [3H]-E1S, 1 min, read-out: IC50, rOATP1B2-mediated E1S uptake) was 1.1 µM; on rOATP1B2 (IC50, rOATP1B2-mediated TCA uptake, 1 µM [3H]-TCA, 1 min) it was 2.4 µM. In addition, the “fold difference of IC50 between mOATP1B2 and rOATP1B2 (stronger inhibition of rOATP1B2)” value at rOATP1B2 (E1S uptake) is 8.7 fold. The inhibition at 10 µM at rOATP1B2 (setting [1]) came out at 93%; on rOATP1B2 (setting [2]), 83%. The “fold difference of IC50 between mOATP1B2 and rOATP1B2” value at rOATP1B2 (TCA uptake) came to 3.2 fold. Moreover, the inhibition at 1 min, 10 µM at hOATP1B1 came out at 59%. At hOATP1B3, the inhibition at 10 min, 10 µM was determined as 104%.
`CC(=O)N1CCN(c2ccc(OCC3COC(Cn4ccnc4)(c4ccc(Cl)cc4Cl)O3)cc2)CC1` (centres unmarked) [Ketoconazole, ketoconazole]: the inhibition at 10 µM on rOATP1B2 (setting [1]) is 34%; at rOATP1B2 (setting [2]), 19%; on rOATP1B2 (setting [3]), less than 50%. The “Inhibitory effect on hOATP1B1-mediated E1S uptake” value on hOATP1B1 is given as 25%; on hOATP1B1 (listed as ketoconazole) it was “less than 50%”. Further, the “Inhibitory effect on hOATP1B3-mediated TCA uptake” value on hOATP1B3 was 23%; at hOATP1B3 (listed as ketoconazole), “less than 50%”.

For the origin of these results see paper PMC12846068, “Insights into Transport Function of the Murine Organic Anion-Transporting Polypeptide OATP1B2 by Comparison with Its Rat and Human Orthologues” (Toxics, 2025).
